According to ChEMBL document CHEMBL1201862, “PubChem BioAssay data set” (2004):
The source made the active and inactive calls.

Tests used:
[1] = molecular target: T1, Tyrosine-protein phosphatase non-receptor type 22 (Homo sapiens, UniProt Q9Y2R2); format: functional
T1 sequence (Q9Y2R2 whole entry): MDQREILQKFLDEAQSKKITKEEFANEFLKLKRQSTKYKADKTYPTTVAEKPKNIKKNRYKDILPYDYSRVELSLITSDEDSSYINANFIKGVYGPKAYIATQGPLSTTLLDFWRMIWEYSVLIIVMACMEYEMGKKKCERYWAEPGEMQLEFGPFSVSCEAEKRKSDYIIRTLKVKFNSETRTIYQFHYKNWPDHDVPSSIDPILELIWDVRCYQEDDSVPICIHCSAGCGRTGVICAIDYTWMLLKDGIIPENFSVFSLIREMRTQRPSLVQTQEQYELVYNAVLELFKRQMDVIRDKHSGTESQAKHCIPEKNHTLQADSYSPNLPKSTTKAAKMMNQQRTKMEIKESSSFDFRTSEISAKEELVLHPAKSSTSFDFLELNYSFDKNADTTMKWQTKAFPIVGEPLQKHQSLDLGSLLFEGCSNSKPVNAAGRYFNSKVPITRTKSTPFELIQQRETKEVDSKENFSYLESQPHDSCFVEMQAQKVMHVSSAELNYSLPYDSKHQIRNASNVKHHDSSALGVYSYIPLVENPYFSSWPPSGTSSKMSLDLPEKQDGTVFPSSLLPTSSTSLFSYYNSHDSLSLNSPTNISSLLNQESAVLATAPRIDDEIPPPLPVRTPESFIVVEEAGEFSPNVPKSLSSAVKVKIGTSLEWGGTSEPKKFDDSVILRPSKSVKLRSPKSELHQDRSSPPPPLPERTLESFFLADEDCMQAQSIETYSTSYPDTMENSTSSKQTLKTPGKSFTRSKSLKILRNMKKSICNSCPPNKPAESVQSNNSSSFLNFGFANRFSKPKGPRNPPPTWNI

[2] = molecular target: T2, Tyrosine-protein phosphatase non-receptor type 7 (Homo sapiens, UniProt P35236); format: functional
T2 sequence (P35236 whole entry): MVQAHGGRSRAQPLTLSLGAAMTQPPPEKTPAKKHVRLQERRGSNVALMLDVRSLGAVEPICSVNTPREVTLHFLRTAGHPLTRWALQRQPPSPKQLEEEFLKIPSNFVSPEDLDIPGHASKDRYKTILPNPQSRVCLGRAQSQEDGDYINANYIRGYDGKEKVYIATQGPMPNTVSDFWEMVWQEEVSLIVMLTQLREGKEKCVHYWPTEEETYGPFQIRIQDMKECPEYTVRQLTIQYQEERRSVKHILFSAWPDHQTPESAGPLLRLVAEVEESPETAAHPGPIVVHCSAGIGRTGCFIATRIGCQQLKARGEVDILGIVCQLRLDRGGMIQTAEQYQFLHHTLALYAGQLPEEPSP

[3] = molecular target: T1, Tyrosine-protein phosphatase non-receptor type 22; format: functional; remark: listed apart in the source
[4] = molecular target: T3, Alkaline phosphatase, tissue-nonspecific isozyme (Homo sapiens, UniProt P05186); test: human TNAP enzyme inhibitors, SAR follow-up, biochemical, luminescent, dose response (AID 1056)
T3 sequence (P05186 whole entry): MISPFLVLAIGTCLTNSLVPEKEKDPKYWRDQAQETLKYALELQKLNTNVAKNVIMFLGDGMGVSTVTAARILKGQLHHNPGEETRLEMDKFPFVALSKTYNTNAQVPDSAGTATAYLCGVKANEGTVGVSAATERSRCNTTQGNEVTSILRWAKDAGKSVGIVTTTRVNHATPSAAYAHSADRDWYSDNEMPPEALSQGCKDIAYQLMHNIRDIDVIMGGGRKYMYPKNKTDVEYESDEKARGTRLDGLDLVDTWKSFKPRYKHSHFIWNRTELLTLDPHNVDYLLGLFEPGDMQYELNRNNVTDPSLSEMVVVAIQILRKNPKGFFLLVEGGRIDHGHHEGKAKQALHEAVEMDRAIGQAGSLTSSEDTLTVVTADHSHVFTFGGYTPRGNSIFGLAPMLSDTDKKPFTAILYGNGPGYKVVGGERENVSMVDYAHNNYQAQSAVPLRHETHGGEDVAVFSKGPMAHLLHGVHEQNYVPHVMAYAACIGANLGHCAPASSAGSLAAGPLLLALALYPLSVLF

[5] = molecular target: Alkaline phosphatase, placental type (Homo sapiens, UniProt P05187); test: PLAP enzyme inhibitors, confirmation, biochemical, luminescence (AID 1512); format: functional
Sequence of Alkaline phosphatase, placental type (P05187 whole entry): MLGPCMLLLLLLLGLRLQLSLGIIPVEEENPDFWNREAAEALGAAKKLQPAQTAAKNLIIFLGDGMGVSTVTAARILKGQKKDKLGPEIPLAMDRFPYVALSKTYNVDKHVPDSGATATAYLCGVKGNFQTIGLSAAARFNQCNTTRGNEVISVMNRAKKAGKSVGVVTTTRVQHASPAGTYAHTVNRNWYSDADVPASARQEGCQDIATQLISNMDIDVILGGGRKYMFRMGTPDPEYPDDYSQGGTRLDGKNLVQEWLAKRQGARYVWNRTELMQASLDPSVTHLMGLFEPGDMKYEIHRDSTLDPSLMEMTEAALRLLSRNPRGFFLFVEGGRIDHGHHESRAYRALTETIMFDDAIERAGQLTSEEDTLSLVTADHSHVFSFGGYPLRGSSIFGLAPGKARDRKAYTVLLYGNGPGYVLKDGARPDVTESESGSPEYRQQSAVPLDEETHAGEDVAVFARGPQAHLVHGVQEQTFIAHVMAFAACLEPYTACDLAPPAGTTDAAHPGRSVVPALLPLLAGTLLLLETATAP

[6] = system: Streptococcus sp. 'group A'; test: growth inhibition of control SK(-) GAS strain, dose response, counter-screen for streptokinase expression inhibitor project, luminescence, kanamycin, BacTiterGlo, confirmation (AID 1900); format: functional, organism-based
[7] = molecular target: T4, Streptokinase A (Streptococcus pyogenes serotype M1, UniProt P10520); test: S. pyogenes streptokinase expression inhibitors, potency, dose response, plasminogen activation absorbance, OD405 (AID 1914); format: functional, Streptococcus pyogenes M1 GAS;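 also: secreted streptokinase activity via plasminogen activation per viability signal from cell pellet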
T4 sequence (P10520 whole entry): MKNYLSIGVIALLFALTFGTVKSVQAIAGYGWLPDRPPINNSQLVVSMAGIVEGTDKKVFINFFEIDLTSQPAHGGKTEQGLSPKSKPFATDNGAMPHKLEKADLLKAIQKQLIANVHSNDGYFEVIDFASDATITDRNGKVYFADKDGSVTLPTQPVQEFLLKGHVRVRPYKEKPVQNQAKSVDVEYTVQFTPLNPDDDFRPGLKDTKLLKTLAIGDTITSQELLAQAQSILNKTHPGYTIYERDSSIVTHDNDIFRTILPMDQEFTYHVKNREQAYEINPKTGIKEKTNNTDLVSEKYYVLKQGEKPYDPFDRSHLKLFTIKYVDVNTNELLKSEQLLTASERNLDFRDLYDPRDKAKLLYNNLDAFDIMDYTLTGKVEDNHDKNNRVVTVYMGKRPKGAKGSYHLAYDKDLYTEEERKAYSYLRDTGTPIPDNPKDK

[8] = system: Streptococcus; test: Group A Streptococcus viability loss, dose response, counter-screen for streptokinase expression inhibitor project, luminescence, BacTiterGlo (AID 1915); format: functional, organism-based;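 also: potency for reduction of bacterial viability or growth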
[9] = molecular target: Coagulation factor XII (Homo sapiens, UniProt P00748); format: functional;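 also: activated factor XIIa alpha cleaving a fluorogenic AMC peptide substrate; inhibitor potency from loss of enzyme activity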
Sequence of Coagulation factor XII (P00748 20-372 limits assumed): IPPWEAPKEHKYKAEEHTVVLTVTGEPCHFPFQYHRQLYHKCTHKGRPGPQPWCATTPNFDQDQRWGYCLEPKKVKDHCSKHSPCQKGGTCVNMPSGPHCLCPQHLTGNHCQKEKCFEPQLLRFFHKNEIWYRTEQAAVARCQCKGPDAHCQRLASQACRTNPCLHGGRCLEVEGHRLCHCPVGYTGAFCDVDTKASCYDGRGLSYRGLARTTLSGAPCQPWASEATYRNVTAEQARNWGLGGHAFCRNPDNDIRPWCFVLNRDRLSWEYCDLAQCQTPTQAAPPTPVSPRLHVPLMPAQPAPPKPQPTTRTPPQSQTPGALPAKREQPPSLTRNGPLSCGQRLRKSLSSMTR
Sequence of Coagulation factor XII (P00748 373-615 limits assumed): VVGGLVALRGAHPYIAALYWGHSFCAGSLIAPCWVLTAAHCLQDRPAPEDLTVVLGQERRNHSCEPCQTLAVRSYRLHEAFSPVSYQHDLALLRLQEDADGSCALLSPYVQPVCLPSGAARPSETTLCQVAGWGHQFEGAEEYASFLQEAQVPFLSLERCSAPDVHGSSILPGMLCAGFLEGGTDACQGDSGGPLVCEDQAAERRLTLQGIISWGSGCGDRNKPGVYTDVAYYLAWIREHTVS

[10] = molecular target: T5, Rac GTPase-activating protein 1 (Homo sapiens, UniProt Q9H0H5); test: MgcRacGAP GTPase-activating activity inhibitors, confirmation, biochemical, ADP Hunter fluorescence, primary and confirmatory (AID 624330); format: functional
T5 sequence (Q9H0H5 whole entry): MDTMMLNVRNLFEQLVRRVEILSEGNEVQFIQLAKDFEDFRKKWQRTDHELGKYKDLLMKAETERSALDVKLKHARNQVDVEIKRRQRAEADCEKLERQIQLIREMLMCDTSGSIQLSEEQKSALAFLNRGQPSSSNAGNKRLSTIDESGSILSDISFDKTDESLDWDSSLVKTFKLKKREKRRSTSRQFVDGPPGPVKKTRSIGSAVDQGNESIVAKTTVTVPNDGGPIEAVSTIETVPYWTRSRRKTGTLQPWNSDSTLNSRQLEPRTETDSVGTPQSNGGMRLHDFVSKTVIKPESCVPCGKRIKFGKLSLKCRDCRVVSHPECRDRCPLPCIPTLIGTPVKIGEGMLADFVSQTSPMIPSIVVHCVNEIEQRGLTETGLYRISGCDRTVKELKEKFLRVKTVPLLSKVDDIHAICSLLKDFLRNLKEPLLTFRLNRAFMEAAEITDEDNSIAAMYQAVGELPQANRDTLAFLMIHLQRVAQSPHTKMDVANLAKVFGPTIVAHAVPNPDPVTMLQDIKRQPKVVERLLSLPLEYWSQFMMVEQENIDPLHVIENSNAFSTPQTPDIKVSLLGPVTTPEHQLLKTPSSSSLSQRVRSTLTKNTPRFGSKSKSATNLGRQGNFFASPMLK

[11] = molecular target: Hexokinase (Trypanosoma brucei, UniProt Q38C41); test: Confirmation assay for inhibitors of Trypanosoma brucei hexokinase 1-Analogue-first series. [Related pubchem assays (depositor defined):AID1430, AID1632, AID2516, AID2560, AID2579, AID2600, AID449725, AID492951]; format: functional
Sequence of Hexokinase (Q38C41 whole entry): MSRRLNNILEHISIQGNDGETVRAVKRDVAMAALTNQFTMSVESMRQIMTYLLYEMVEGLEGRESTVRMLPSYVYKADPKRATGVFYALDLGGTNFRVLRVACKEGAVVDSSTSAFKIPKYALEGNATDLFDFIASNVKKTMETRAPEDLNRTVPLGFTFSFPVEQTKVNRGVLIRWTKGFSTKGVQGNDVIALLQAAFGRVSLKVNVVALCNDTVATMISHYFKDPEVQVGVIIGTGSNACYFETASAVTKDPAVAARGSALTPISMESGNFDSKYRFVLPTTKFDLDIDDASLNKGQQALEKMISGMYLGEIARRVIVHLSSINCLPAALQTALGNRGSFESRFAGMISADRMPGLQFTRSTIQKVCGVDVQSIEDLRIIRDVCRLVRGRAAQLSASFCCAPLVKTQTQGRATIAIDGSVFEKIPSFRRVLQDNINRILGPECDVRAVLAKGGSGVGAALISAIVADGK

[12] = HeLa cell cytotoxicity, dose response, cytotoxicity control for MgcRacGAP inhibitor project (AID 624300); format: functional
[13] = molecular target: T6, Phosphomannomutase 2 (Homo sapiens, UniProt O15305); test: Counter screen SAR assay for PMM2 inhibitors via a fluorescence intensity assay. [Related pubchem assays (depositor defined):AID1545, AID1574]
T6 sequence (O15305 whole entry): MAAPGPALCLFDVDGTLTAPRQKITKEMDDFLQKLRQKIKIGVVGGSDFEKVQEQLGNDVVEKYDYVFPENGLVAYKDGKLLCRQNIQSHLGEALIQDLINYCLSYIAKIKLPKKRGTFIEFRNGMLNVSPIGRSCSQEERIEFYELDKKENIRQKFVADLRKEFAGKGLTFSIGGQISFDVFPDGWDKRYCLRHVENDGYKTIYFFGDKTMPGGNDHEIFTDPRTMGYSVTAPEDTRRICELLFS

[14] = molecular target: Glucose-6-phosphate 1-dehydrogenase (Homo sapiens, UniProt P11413); test: human G6PD enzyme inhibitors, dose response, selectivity assay for P. falciparum G6PD inhibitor project, biochemical, fluorescence (AID 504792); format: functional
Sequence of Glucose-6-phosphate 1-dehydrogenase (P11413 whole entry): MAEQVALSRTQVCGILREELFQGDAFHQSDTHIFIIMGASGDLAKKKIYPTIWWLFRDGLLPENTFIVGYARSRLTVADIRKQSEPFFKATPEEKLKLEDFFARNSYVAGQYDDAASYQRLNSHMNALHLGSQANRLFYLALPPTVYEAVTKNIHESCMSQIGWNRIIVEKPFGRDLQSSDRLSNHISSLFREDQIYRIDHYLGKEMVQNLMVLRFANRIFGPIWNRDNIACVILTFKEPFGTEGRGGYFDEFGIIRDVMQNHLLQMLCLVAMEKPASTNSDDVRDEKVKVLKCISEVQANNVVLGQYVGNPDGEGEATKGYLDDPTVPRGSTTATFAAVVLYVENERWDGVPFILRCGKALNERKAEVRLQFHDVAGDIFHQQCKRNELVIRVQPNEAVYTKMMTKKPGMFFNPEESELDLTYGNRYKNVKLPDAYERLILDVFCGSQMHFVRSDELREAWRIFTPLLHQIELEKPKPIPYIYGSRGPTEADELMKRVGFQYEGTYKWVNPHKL

SMILES: CCNS(=O)(=O)c1cc(S(C)(=O)=O)ccc1Cl
- IC50 [1]: > 79.4 µM (inactive)
- IC50 [2]: > 79.4 µM (inactive)
- IC50 [3]: > 79.4 µM (inactive)

SMILES: Oc1ccc(C2=Nn3c(nnc3-c3ccccc3Cl)SC2)cc1O
- IC50 [4]: 4.02 µM (active)
- IC50 [5]: 15 µM (active)

SMILES: O=C(Nc1ncc(Cc2ccccc2)s1)c1cccs1
- EC50 [6]: 15.6 µM (active)
- EC50 [7]: > 150 µM (not active)
- EC50 [8]: > 150 µM (not active)
- IC50 [9]: > 50 µM (inactive)

SMILES: O=c1c2ccccc2sn1-c1ccc(Cl)cc1
- IC50 [10]: 34.7 µM (active)
- IC50 [11]: 1.1 µM (active)
- CC50 [12]: 100 µM (active)
- IC50 [13]: 35.6 µM (active)
- IC50 [14]: 10.5 µM (active)
